Assay results reported in patent publication US20220041641A1, “QUATERNARY AMMONIUM SALTS AS INHIBITORS OF TRIMETHYLAMINE PRODUCTION” (Senda Biosciences, Inc., priority 2018, published 2022).
Several values for one entry are separate records, joined by “and”; a condition that tells them apart may be missing. Equal values may be shown once. Read-outs that look alike come from different tables or passages of the source.

Experiments:
[1] = biological target: CutC from Proteus mirabilis (Proteus mirabilis, UniProt B4EYG1); test: Cell-based assay for TMA production from a native producer (P. mirabilis); conditions: d9-TMA from 1 mM d9-choline, 5 h, 37° C.; value 10 given when no fit or % TMA remaining at 10 μM higher than 15%; read-out: Average IC50 Whole cell P. mirabilis
Sequence of CutC from Proteus mirabilis (B4EYG1 entry or part of it): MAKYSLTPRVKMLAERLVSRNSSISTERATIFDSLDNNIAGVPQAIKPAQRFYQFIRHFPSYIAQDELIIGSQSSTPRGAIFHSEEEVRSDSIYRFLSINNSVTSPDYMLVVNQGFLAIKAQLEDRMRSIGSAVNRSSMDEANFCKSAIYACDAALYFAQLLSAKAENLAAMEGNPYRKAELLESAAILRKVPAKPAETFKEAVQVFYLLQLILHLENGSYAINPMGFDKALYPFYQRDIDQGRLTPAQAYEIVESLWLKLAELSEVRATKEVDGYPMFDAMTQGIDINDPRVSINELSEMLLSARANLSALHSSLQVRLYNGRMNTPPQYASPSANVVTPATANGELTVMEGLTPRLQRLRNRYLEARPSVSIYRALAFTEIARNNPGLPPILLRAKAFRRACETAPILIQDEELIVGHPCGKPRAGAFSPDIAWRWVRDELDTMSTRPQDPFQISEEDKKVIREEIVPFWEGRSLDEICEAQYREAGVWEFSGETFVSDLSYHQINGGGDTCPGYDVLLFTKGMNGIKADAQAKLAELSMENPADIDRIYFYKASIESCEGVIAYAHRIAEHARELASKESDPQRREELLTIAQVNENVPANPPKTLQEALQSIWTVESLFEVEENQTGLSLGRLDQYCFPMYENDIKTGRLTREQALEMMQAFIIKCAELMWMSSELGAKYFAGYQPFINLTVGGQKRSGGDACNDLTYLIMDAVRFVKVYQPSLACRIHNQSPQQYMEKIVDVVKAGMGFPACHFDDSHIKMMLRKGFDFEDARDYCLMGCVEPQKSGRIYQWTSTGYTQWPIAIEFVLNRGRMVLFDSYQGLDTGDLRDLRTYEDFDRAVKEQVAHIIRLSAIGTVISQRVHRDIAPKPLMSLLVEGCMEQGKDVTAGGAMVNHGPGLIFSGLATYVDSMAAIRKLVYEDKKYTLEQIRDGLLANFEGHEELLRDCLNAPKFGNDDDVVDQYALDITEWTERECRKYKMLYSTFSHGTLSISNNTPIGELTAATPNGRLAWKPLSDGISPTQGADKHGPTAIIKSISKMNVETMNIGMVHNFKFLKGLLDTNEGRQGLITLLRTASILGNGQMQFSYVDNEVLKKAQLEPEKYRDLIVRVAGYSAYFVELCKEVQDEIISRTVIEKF
Sequence of CutC from Proteus mirabilis (B4EYG0 entry or part of it, further chain): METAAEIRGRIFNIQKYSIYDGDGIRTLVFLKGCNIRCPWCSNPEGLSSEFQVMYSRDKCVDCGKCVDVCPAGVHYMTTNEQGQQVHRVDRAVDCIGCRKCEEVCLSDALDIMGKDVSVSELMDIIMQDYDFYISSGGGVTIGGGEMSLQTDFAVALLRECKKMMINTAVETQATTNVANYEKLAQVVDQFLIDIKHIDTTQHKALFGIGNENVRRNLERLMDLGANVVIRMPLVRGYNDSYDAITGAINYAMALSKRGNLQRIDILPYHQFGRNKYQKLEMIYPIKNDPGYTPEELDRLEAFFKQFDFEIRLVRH
Summary of the method: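 Overnight anaerobic cultures of P. mirabilis or C. sporogenes, grown in BHI with 1 mM choline, were diluted and given 1 mM (trimethyl-d9)-choline plus compound at 10 μM final. After 5 h at 37° C., d9-TMA was quantified by LCMS.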

[2] = Caco-2 permeability assay; assay type: in vitro ADME; conditions: human
Experimental: Preparation of Caco-2 Cells: 50 μL and 25 mL of cell culture medium were added to each well of the Transwell insert and reservoir, respectively. The HTS transwell plates were incubated at 37° C., 5% CO2 for 1 hour before cell seeding. […] Cell culture medium was replaced every other day, beginning no later than 24 hours after initial plating.
Assessment of Cell Monolayer Integrity: Medium was removed from the reservoir and each Transwell insert and replaced with prewarmed fresh culture medium. Transepithelial electrical resistance (TEER) across the monolayer was measured using Millicell Epithelial Volt-Ohm measuring system (Millipore, USA). The Plate was returned to the incubator once the measurement was done. The TEER value was calculated according to the following equation: […]
Preparation of Solutions: 2 mM stock solutions in DMSO of control compounds were prepared and diluted with HBSS (10 mM HEPES, pH 7.4) to get 10 μM working solution. 0.2 mM stock solutions of test compounds in DMSO were prepared and diluted with HBSS (10 mM HEPES, pH 7.4 with 0.5% BSA) to get 1 μM working solution. Metoprolol, erythromycin and cimetidine were used as control compounds.
The Caco-2 plate was removed from the incubator. The monolayer was washed twice with pre-warmed HBSS (10 mM HEPES, pH 7.4). The plate was incubated at 37° C. for 30 minutes. To determine the rate of drug transport in the apical to basolateral direction, 125 μL of the working solution was added to the Transwell insert (apical compartment). A 50 μL sample was transferred immediately from the apical compartment to 200 μL of acetonitrile containing IS (100 nM alprazolam, 200 nM Caffeine and 100 nM tolbutamide) in a new 96-well plate as the initial donor sample (A-B) and it was vortexed at 1000 rpm for 10 minutes. The wells in the receiver plate (basolateral compartment) were filled with 235 μL of transport buffer. To determine the rate of drug transport in the basolateral to apical direction, 285 μL of the working solution were added to the receiver plate wells (basolateral compartment). A 50 μL sample was transferred immediately from the basolateral compartment to 200 μL of acetonitrile containing IS (100 nM alprazolam, 200 nM Caffeine and 100 nM tolbutamide) in a new 96-well plate as the initial donor sample (B-A) and it was vortexed at 1000 rpm for 10 minutes. The Transwell insert (apical compartment) was filled with 75 μL of transport buffer. The apical to basolateral direction and the basolateral to apical direction need to be done at the same time. The plates were incubated at 37° C. for 2 hours. At the end of the incubation, 50 μL samples from donor sides (apical compartment for Ap→Bl flux, and basolateral compartment for B1→Ap) and receiver sides (basolateral compartment for Ap→Bl flux, and apical compartment for B1→Ap) were transferred to wells of a new 96-well plate, followed by the addition of 4 volume of acetonitrile containing IS (100 nM alprazolam, 200 nM Caffeine and 100 nM tolbutamide). Samples were vortexed for 10 minutes, 50 μL samples were transferred to wells of a new 96-well plate, followed by the addition of 50 μL Hepes and 200 μL IS. All samples were vortexed for 10 minutes, and then centrifuged at 3,220 g for 40 minutes. An aliquot of 150 μL of the supernatant was mixed with an appropriate volume of ultra-pure water before LC-MS/MS analysis.
Apparent permeability (Papp) can be calculated for drug transport assays using the following equation: […]
Papp is apparent permeability (cm/s×10^−6);
Papp (B-A) indicates the apparent permeability coefficient in basolateral to apical direction, and
Papp (A-B) indicates the apparent permeability coefficient in apical to basolateral direction.

[3] = biological target: CutC from Clostridium sporogenes (Clostridium sporogenes, UniProt A0AAE4Z0A8); test: Cell-based assay for TMA production from a native producer (C. sporogenes); conditions: read-out: IC50 Whole cell C. sporogenes; d9-TMA from 1 mM d9-choline, 5 h, 37° C.; run once; value 10 given when no fit or % TMA remaining at 10 μM higher than 15%
Sequence of CutC from Clostridium sporogenes (A0ABD6RTF0 entry or part of it): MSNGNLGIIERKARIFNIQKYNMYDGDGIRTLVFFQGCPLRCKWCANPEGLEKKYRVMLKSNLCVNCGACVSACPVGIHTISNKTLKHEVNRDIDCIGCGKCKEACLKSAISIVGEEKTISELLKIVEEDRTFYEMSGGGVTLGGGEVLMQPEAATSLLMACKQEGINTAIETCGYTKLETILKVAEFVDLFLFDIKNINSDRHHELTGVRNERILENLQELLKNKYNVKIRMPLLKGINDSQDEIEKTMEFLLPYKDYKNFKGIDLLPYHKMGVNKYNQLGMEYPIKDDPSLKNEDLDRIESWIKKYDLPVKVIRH
Sequence of CutC from Clostridium sporogenes (A0AAE4Z0A8 entry or part of it): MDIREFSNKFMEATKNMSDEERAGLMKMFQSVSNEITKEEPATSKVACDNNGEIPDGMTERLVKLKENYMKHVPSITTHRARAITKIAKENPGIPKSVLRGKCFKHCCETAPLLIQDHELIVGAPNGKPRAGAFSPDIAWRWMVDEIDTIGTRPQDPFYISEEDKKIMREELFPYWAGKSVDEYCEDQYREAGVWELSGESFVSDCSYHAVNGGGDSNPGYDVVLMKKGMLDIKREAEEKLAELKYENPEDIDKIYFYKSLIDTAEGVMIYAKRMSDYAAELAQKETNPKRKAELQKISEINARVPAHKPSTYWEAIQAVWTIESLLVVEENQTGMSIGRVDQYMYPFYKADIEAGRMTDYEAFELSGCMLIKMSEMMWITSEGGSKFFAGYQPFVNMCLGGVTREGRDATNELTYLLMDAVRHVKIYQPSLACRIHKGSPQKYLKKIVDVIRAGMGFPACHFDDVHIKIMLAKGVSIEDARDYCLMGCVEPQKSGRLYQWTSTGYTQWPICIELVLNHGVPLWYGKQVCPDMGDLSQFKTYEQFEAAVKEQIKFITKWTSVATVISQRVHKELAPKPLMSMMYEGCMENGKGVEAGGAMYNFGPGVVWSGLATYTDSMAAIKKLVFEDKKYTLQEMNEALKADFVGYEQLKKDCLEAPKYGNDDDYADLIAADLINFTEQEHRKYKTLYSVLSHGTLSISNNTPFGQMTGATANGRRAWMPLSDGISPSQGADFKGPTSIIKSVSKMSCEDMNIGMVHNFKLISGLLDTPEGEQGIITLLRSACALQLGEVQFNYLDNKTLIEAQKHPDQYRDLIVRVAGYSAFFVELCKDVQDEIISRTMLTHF
Excerpt: In each bacterium, CutC was modified into its activated form by a cognate activating enzyme, CutD (protein EDU36696.1 for C. sporogenes; protein WP_004249185.1 for P. mirabilis). […] Trimethylamine may subsequently be converted by human enzymes such as flavin monooxygenase 3 to trimethylamine N-oxide, which might be associated with negative health consequences in humans.
A compound's ability to inhibit CutC from Proteus mirabilis and C. sporogenes from converting choline into trimethylamine was tested in cells as described. A BHI blood plate was inoculated with a frozen stock of Proteus mirabilis or Clostridium sporogenes under anaerobic conditions. A single colony was isolated from the plate and inoculated into 5 mL BHI supplemented with 1 mM choline under anaerobic conditions. The liquid cultures were grown overnight at 37° C.
To prepare each sample, 300 μL of the saturated culture was then inoculated into a 30 mL dilution blank under anaerobic conditions. 1 mM (trimethyl-d9)-choline and a sufficient amount of a compound to obtain a final concentration of 10 μM were added to the inoculated dilution blank. […] The mixture was incubated at 37° C. for 5 h. […] After centrifugation, the samples were analyzed by LCMS to determine the amount of d9-TMA produced.

CutC/D enzyme = test: Acute mouse model (plasma TMAO on choline diet); assay type: in vivo, male C57BL/6 mice
Experimental: The following acute mouse model may be used to determine inhibition of the CutC/D enzyme and thus the inhibition of the formation of trimethylamine (TMA) from choline.
On day 1, male C57BL/6 mice were given a chemically defined diet (Tekland Global Rodent Diet 2018) containing 1.0% choline (g/g) for the duration of the experiment. Concurrently on day 1, mice were orally gavaged with 200 μL of compounds of interest (formulated in water). Mice were orally gavaged with the compounds and vehicle control again on day 2 and day 3 at a fixed time. Twenty hours after the last gavage, mice were sacrificed, and plasma was collected and prepared for detection of trimethylamine-N-oxide (TMAO) via liquid chromatography with on-line tandem mass spectrometry (LC-MS/MS). Food consumption and mouse weight were measured each day.
Plasma samples were prepared for LCMS as follows: An aliquot of 20 μL plasma sample was protein precipitated with 200 μL internal standard solution (100 ng/mL Labetalol & 100 ng/mL Tolbutamide & 100 ng/mL Diclofenac in acetonitrile, the mixture was vortex-mixed and centrifuged at 4000 rpm for 15 min, 4° C. An aliquot of 100 μL supernatant was transferred to the sample plate for LCMS injection. 1 μL of sample was injected onto an LC column for TMAO LCMS analysis.
Concentrations of TMAO were determined with a calibration curve ranging 0.05-100 μM for d9-TMAO in control plasma.

[4] = pH 7.4, Caco-2, apical to basolateral, 1 μM, 2 hours, 37° C., read-out: Papp A-B
[5] = pH 7.4, Caco-2, basolateral to apical, 1 μM, 2 hours, 37° C., read-out: Papp B-A

C#CC[N+](C)(CF)CCO[C@@H]1O[C@H](COC(C)=O)[C@@H](OC(C)=O)[C@H](OC(C)=O)[C@H]1OC(C)=O (stereo partly drawn) [Compound 77, (fluoromethyl)(methyl)(prop-2-yn-1-yl)(2-{[(2R,3R,4S,5R,6R)-3,4,5-tris(acetyloxy)-6-[(acetyloxy)methyl]oxan-2-yl]oxy}ethyl)azanium]
IC50 [1]: ≥ 10000 nM | Papp A→B at 2 h, 1 µM [2, 4]: 0.218 ×10⁻⁶ cm/s | Papp B→A at 2 h, 1 µM [2, 5]: 0.337 ×10⁻⁶ cm/s

C[N+](C)(CCO)CC1CC1.[Br-] [Compound 107, N-(cyclopropylmethyl)-2-hydroxy-N,N-dimethylethan-1-aminium Bromide]
IC50 [3]: ≥ 10000 nM | IC50 [1]: ≥ 10000 nM | Papp A→B at 2 h, 1 µM [2, 4]: 26.8 ×10⁻⁶ cm/s | Papp B→A at 2 h, 1 µM [2, 5]: 31.1 ×10⁻⁶ cm/s

C[N+]1(CF)CCC[C@H]1CO.[I-] (stereo partly drawn) [Compound 109, (2S)-1-(fluoromethyl)-2-(hydroxymethyl)-1-methylpyrrolidin-1-ium iodide]
IC50 [3]: 420 nM | IC50 [1]: 620 nM | % change from vehicle control + choline diet (CutC/D enzyme; Table 4g, 116 mg/kg oral gavage days 1-3): −90% | Mean plasma TMAO (CutC/D enzyme; Table 4g, 116 mg/kg oral gavage days 1-3, plasma 20 h after last gavage): 2.71 µM | Papp A→B at 2 h, 1 µM ([2]; Caco-2, pH 7.4): 0.6 ×10⁻⁶ cm/s | Papp B→A at 2 h, 1 µM ([2]; Caco-2, pH 7.4): 0.5 ×10⁻⁶ cm/s

C[N+](C)(CCO)C1CC1.[I-] [Compound 111, N-(2-hydroxyethyl)-N,N-dimethylcyclopropanaminium Iodide]
IC50 [3]: 220 nM | IC50 [1]: 140 nM and 270 nM | Papp A→B at 2 h, 1 µM ([2]; Caco-2, pH 7.4): 0.8 ×10⁻⁶ cm/s | Papp B→A at 2 h, 1 µM ([2]; Caco-2, pH 7.4): 0.8 ×10⁻⁶ cm/s

C#CC[N+]1(C)CCCN1.[I-] (stereo not drawn) [Compound 125, 1-methyl-1-(prop-2-yn-1-yl)pyrazolidin-1-ium Iodide]
IC50 [1]: 190 nM | % change from vehicle control + choline diet (CutC/D enzyme; Table 4g, 9.8 mg/kg oral gavage days 1-3): −6% | Mean plasma TMAO (CutC/D enzyme; Table 4g, 9.8 mg/kg oral gavage days 1-3, plasma 20 h after last gavage): 26.2 µM | % change from vehicle control + choline diet (CutC/D enzyme; Table 4g, 97.7 mg/kg oral gavage days 1-3): 18% | Mean plasma TMAO (CutC/D enzyme; Table 4g, 97.7 mg/kg oral gavage days 1-3, plasma 20 h after last gavage): 32.8 µM | Papp A→B at 2 h, 1 µM ([2]; Caco-2, pH 7.4): 0.466 ×10⁻⁶ cm/s | Papp B→A at 2 h, 1 µM ([2]; Caco-2, pH 7.4): 0.482 ×10⁻⁶ cm/s

C#CC[N+](C)(C)CCO.[Br-] [Compound J60, N-(2-hydroxyethyl)-N,N-dimethylprop-2-yn-1-aminium Iodide]
% change from vehicle control + choline diet (CutC/D enzyme; Table 4a, 10 mg/kg oral gavage days 1-3): −28.46% | Mean plasma TMAO (CutC/D enzyme; Table 4a, 10 mg/kg oral gavage days 1-3, plasma 20 h after last gavage): 31.06 µM | % change from vehicle control + choline diet (CutC/D enzyme; Table 4a, 33 mg/kg oral gavage days 1-3): −60.39% | Mean plasma TMAO (CutC/D enzyme; Table 4a, 33 mg/kg oral gavage days 1-3, plasma 20 h after last gavage): 17.20 µM | % change from vehicle control + choline diet (CutC/D enzyme; Table 4a, 100 mg/kg oral gavage days 1-3): −87.29% | Mean plasma TMAO (CutC/D enzyme; Table 4a, 100 mg/kg oral gavage days 1-3, plasma 20 h after last gavage): 5.52 µM | Mean plasma TMAO (CutC/D enzyme; Table 4b, 10 mg/kg oral gavage days 1-3, plasma 20 h after last gavage, 10 mg/kg): 27.4 µM and 24.7 µM | % change from vehicle control + choline diet (CutC/D enzyme; Table 4c, 100 mg/kg oral gavage days 1-3): −74.22% | Mean plasma TMAO (CutC/D enzyme; Table 4c, 100 mg/kg oral gavage days 1-3, plasma 20 h after last gavage): 5.41 µM | % change from vehicle control + choline diet (CutC/D enzyme; Table 4e, 100 mg/kg oral gavage days 1-3): −86% | Mean plasma TMAO (CutC/D enzyme; Table 4e, 100 mg/kg oral gavage days 1-3, plasma 20 h after last gavage): 3.81 µM | % change from vehicle control + choline diet (CutC/D enzyme; Table 4f, 100 mg/kg oral gavage days 1-3): −81% | Mean plasma TMAO (CutC/D enzyme; Table 4f, 100 mg/kg oral gavage days 1-3, plasma 20 h after last gavage): 6.20 µM | % change from vehicle control + choline diet (CutC/D enzyme; Table 4g, 100 mg/kg oral gavage days 1-3): −53% | Mean plasma TMAO (CutC/D enzyme; Table 4g, 100 mg/kg oral gavage days 1-3, plasma 20 h after last gavage): 13.1 µM | % change from vehicle control + choline diet (CutC/D enzyme; Table 4h, 100 mg/kg oral gavage days 1-3): −80% | Mean plasma TMAO (CutC/D enzyme; Table 4h, 100 mg/kg oral gavage days 1-3, plasma 20 h after last gavage): 8.72 µM | % change from vehicle control + choline diet (CutC/D enzyme; Table 4d, 100 mg/kg oral gavage days 1-3): −68% | Mean plasma TMAO (CutC/D enzyme; Table 4d, 100 mg/kg oral gavage days 1-3, plasma 20 h after last gavage): 6.00 µM | Papp A→B at 2 h, 1 µM [2, 4]: 11.1 ×10⁻⁶ cm/s | Papp B→A at 2 h, 1 µM [2, 5]: 6.23 ×10⁻⁶ cm/s
